# Source: ChEMBL document CHEMBL6092139, “AChE inhibitory activity of N-substituted natural galanthamine derivatives” (Bioorg Med Chem Lett, 2024)
# Target: Acetylcholinesterase (Homo sapiens, UniProt P22303)
# Test: Inhibition of AChE (unknown origin) using acetylthiocholine iodide as substrate preincubated for 30 mins followed by substrate addition and measured after 3 mins by DTNB reagent based Ellman's method
# Acetylcholinesterase, sequence (P22303 whole entry): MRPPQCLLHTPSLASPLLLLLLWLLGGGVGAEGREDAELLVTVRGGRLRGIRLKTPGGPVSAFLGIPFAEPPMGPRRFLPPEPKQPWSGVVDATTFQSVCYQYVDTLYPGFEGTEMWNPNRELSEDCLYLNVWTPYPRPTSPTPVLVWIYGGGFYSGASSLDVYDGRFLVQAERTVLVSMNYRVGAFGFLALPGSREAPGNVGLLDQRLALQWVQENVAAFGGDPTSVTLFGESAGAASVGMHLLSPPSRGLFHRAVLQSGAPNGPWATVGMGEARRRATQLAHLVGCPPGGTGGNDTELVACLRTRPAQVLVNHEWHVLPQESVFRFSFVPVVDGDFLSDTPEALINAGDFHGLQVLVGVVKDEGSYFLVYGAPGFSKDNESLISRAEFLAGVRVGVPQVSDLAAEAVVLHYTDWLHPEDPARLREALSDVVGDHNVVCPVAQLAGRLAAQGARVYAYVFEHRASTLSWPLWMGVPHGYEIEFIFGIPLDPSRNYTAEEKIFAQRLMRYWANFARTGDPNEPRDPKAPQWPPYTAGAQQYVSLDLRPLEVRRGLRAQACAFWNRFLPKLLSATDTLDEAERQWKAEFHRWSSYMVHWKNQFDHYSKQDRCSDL
row,Compound,IC50
1,COc1ccc2c3c1O[C@H]1C[C@@H](O)C=C[C@@]31CCN(C=O)C2,98.8 µM
2,C=CCN1CC[C@@]23C=C[C@H](O)C[C@@H]2Oc2c(OC)ccc(c23)C1 [N-ALLYLNORGALANTHAMINE],0.18 µM
3,COc1ccc2c3c1O[C@H]1C[C@@H](O)C=C[C@@]31CCN(C(C)=O)C2,9.8 µM
